This is an account of results in US5492930A, “Method and formulation for treating CNS disorders” (Schering Corporation, priority 1994, dated 1996).

The test system of assay [1] is electroconvulsive shock (ECS) induced convulsions. Description: blocking electroconvulsive shock (ECS) induced convulsions (Swinyard et al. procedures). The assay is classed as in vivo.
Assay [2] relates to amnestic effects of MK-801. The conditions noted are these: Chiamulera et al. 1990; cited from earlier work.
The subject of assay [3] is scopolamine induced cognitive deficit. The conditions noted are these: passive avoidance response test, mice; cited from earlier work.
In assay [4] the test system is amnestic effects of MK-801. The experiment in a line: passive avoidance response (PAR) test, amnestic effects of MK-801. The assay is classed as in vivo. As to conditions: mice. The text has this: FIG. 3 is a plot showing the mean latency time in the PAR test of felbamate and Compound I in blocking the amnestic effects of MK-801.
FIG. 4 is a plot showing the mean latency time in the PAR test of Compound I and the corresponding monoacid-monocarbamate.
(§1) The NMDA receptor is strongly implicated in the production of long-term potentiation and subsequent memory processes (Morris, et al., Nature Vol. 319, pp 774-776 (1986)). Blockade of these sites produces amnestic effects in mice on the passive avoidance response.

The conditions of assay [5]: literature statement; cited from earlier work.
Assay [6] has as its system scopolamine induced cognitive deficit. The experiment in a line: passive avoidance response (PAR) test, scopolamine induced cognitive deficit. As to conditions: mice, sc or po (FIGS. 1 and 2). The assay is classed as in vivo. The protocol: FIGS. 1 and 2 are plots showing the mean latency time in the passive avoidance response (PAR) test of Compound I and arecoline in reversing scopolamine induced cognitive deficits where Compound I is administered subcutaneously (sc) or orally (po).
(§2) See, for example Dilts and Berry, J. Pharmacology and Experimental Therapeutics 58, 279-285 (1967).

Assay [7] has as its system cognitive deficits (scopolamine, MK-801). The experiment in a line: cognitive enhancement (Examples I and II overall). The assay is classed as in vivo, mice. As to conditions: data of Examples I and II.
Excerpt: as §2, §1

Where [8] appears, read: SC, blocking ECS induced convulsions, read-out: ED50.

Where two headings read alike, the source gives them in different places.

A word on the ED50: it is the midpoint of the dose-response relation. As to `O=C1NC(=O)C(c2ccccc2)(c2ccccc2)N1` [Dilantin], the ED50 in assay [1] (setting [8]) is 5.5 mg/kg.

In the case of `C[C@]12N[C@H](Cc3ccccc31)c1ccccc12` [MK-801], in assay [2], the cognitive deficits produced result is given as “produces cognitive deficits”. `CCC1(c2ccccc2)C(=O)NC(=O)NC1=O` [Phenobarbital] showed an ED50 in assay [1] (sc) of 12 mg/kg. As to `NC(=O)N1c2ccccc2C=Cc2ccccc21` [Carbamazepine], the ED50 in assay [1] (setting [8]) was 12 mg/kg. Regarding `CN1[C@@H]2C[C@@H](OC(=O)[C@H](CO)c3ccccc3)C[C@H]1[C@@H]1O[C@@H]12` [Scopolamine], the amnestic effect result in assay [3] was “well-known amnestic for mice in a passive avoidance response test”. In the case of `NC(=O)OCC(COC(N)=O)c1ccccc1` [Felbamate, 2-phenyl-1,3-propanediol dicarbamate], the 50% effective dose (ED50) in assay [1] (setting [8]) stood at 42.2 mg/kg. In addition, the “blocking the amnestic effects of MK-801” value in assay [4] is given as “does not block the effect of MK-801”. In addition, in assay [5], the anticonvulsant effect result is given as “effective anticonvulsant agent”.

The molecule `CCCC(CCC)C(=O)O` [Valproate] had an ED50 in assay [1] (sc) of 550 mg/kg. For the molecule `NC(=O)OCC(CO)c1ccccc1` (stereo not drawn) [Compound I, 2-phenyl-1,3-propanediol monocarbamate], the “effectiveness in blocking ECS induced convulsions vs felbamate and other known anti-convulsants” value in assay [1] (in words) was “significantly less effective than felbamate and other known anti-convulsants”. The 50% effect level in assay [1] (sc) (ED50) was put at a dose of 173 mg/kg. Besides, in assay [6], the “antagonism of the amnestic effects of scopolamine” value is on record as “antagonist for the amnestic effects of scopolamine over a very wide dosage range”. In assay [4], the “blocking the amnestic effects of MK-801” value is “effectively blocks the amnestic effects of MK-801 in this model at low doses” and the “effectiveness in blocking the effects of MK-801 vs the corresponding monoacid-monocarbamate” value is recorded as “more effective than the corresponding monoacid-monocarbamate”. Further, the “effectiveness vs the corresponding dicarbamate and monoacid-monocarbamate compounds” value in assay [7] was “significantly more effective than the corresponding dicarbamate and monoacid-monocarbamate compounds”.
